Assay results: patent publication US20250058002A1, “ELECTROCHEMICAL INHIBITION OF REDOX ACTIVE BACTERIA AND RELATED DEVICES, METHODS AND SYSTEMS” (priority 2023, published 2025)
Where two headings read alike, the source gives them in different places.

Key:
[1] = test system: P. aeruginosa PA14 liquid cultures; experiment: Toxicity of reduced PYO to liquid-grown cells under anoxic conditions; assay type: cell-based; details: 1, 10, and 100 μM reduced PYO, 30 minutes, normalized to untreated
Protocol: FIG. 8: Toxicity of reduced PYO to liquid-grown cells. Exposure of mid-log aerobic P. aeruginosa PA14 liquid cultures to 1, 10, and 100 μM reduced PYO under anoxic conditions. Triplicate data shown normalized to untreated samples with line at mean.
Treatment of liquid cultures with reduced PYO. 100 μM PYO in MM was reduced electrochemically using a dual-chamber reactor with an cation exchange membrane (CMI-7000, Membranes International) to avoid re-oxidation of PYO at the counter electrode. […] chamber contained Ag/AgCl reference electrode, platinum mesh working electrode, and was flushed with N2; while […] chamber was oxic and contained platinum mesh counter electrode. PYO reduction was carried out by poising the working electrode at −400 mV vs. Ag/AgCl for 24 hours, past the point of 100% PYO reduction based on coulombic efficiency, and biochemical reactor was then transferred into the anaerobic chamber. Anoxic vials with pre-equilibrated MM and corresponding concentrations of reduced PYO were then treated with biochemical O2 scavenging system (10 mM glucose+375 nM glucose oxidase+750 nM catalase) for an hour before inoculation. Aerobic liquid cultures of P. aerughnosa in MM at mid-log (OD600=0.5) were spun down and resuspended in fresh media and used to inoculate assays with 10% (vol/vol). […]

PA14 [2] = experiment: Redox cycles over 7 days and support of survival (Table 4); assay type: cell-based, P. aeruginosa
Source text: (§1) Phenazines and other redox active compound in the sense of the disclosure can be further characterized by various electrical properties such as a standard electrode potential E° vs. NHE of −500 mV to 500 mV and other properties such as number of redox cycle over a certain period of time (e.g. number of days) as ability to support survival and susceptibility to reduction by enzymes and/or bacterial strains.

PA14 [3] = experiment: Reduction of redox-active compound by PA14 (Table 4); assay type: cell-based, P. aeruginosa
Source text: as §1

[4] = Midpoint potential E1/2 by voltammetry vs Ag/AgCl (3M KCl); assay type: physicochemical; details: for E1/2 (vs. Ag/AgCl (3M KCl))/mV: Example 15 table
Protocol: The purified redox-active molecule can be dissolved in aqueous solution at appropriate concentration in the presence of supporting electrolyte and buffer to select the pH of measurement. For example, the redox-active molecule can be dissolved in 10 μM-10 mM concentrations in distilled, deionized water (DDW). The supporting electrolyte can be a salt such as NaCl or KCl at 0.01-0.5 M concentrations, for example, dissolved in DDW. The buffer can be 10 mM ammonium acetate/3-(N-morpholino)propanesulfonic acid at pH 7, or phosphate-buffered saline (PBS) at pH 7.4, or sodium acetate buffer at pH 5, or di-sodium hydrogen phosphate/potassium dihydrogen phosphate at pH 9, or boric acid/citric acid/trisodium phosphate for a wide range of pH values, for example.
Voltammetric methods are then used to characterize the electrochemical behavior of the redox-active molecule in such solution, with a potentiostat such as a Gamry PC4-300, using a three-electrode setup with working electrode (glassy carbon, or platinum, or gold), counter electrode (platinum wire) and reference electrode (Ag/AgCl (3M KCl), or SCE, or NHE; values are reported relative to Ag/AgCl (3M KCl) which has potential +197 mV vs. NHE at 298K).
For example, cyclic voltammetry may be used. In a cyclic voltammetry experiment phenazines will show a peak on the cathodic sweep (denoted Epc) corresponding to the reduction of the redox molecule.
The reverse, anodic sweep will show a peak (denoted Epa) corresponding to the re-oxidation of the redox molecule. If the electrode reaction is diffusion-controlled and reversible, the cathodic and anodic peak currents will be equal in area, and the mid-point between these peaks may be taken as the formal reduction potential of the redox molecule under the experimental conditions used. This value can interchangeably be referred to as the “midpoint potential” or “mid-peak potential”, denoted E1/2.
PYO was purified from aerobic bacterial cultures and was dissolved in 0.1 M KCl aqueous solution buffered with 10 mM ammonium acetate-3-(N-morpholino)propanesulfonic acid (5 mM each, pH 7) to yield a stock solution concentration of 829 μM PYO. Electrochemical measurements were performed with a Gamry PC4-300 potentiostat. A stationary gold disk electrode (BASi) was used as the working electrode, an Ag/AgCl electrode (RE-51, BASi) as the reference, and a straight platinum wire (BASi) was the counter electrode. Scans were performed between 20 and 500 mV/s in the potential range of around E1/2 (+/−300 mV), at 298 K.
As described in en.wikipedia.org/wiki/Nernst_equation, the Nernst equation relates E1/2 measured at pH 7 to the E1/2 at a different pH by:
[formula] • where E1/2 is in V • h is the number of protons transferred in the electrochemical reaction • e is the number of electrons transferred in the electrochemical reaction

[5] = Square wave voltammograms of electrode-attached biofilms; assay type: physicochemical; details: acquired immediately after transfer to anoxic reactors
Protocol: FIG. 3: Electrochemical signal of wild type, Δphz*, and Δphz*+10 μM PYO showing PYO (E1/2=−250 mV vs Ag/AgCl) is the only redox active signal observed under these conditions and is retained by wild type biofilms. Square wave voltammograms acquired immediately after transfer to anoxic reactors.
Square Wave Voltammograms. Potential was scanned from +100 mV to −500 mV vs Ag/AgCl and in reverse with the following parameters: pulse height=50 mV, pulse width=66.6 ms, step height=−0.5 mV, and acquisition of the average current over the last 50% of each step. Square wave voltammograms were acquired immediately after transfer from oxic to anoxic conditions.

Δphz* biofilms = experiment: Anoxic survival (CFU) of electrode-attached phenazine-deficient biofilms at poised potential; assay type: cell-based, P. aeruginosa UCBPP-PA14; Δphz*; details: 10 μM PYO added, PYO-reductive conditions
Protocol: Electrochemical reactors and biofilm growth. Double-jacketed electrochemical reactors (Pine Instruments, 250 ml, wide center port 29/26) were used with ITO-coated 0.2 mm thick boro-aluminosilicate glass slides (Delta Technologies, 24×60 mm, Rs=7-10Ω) as working electrodes, freshly sanded graphite rods (Alfa Aesar) as counter electrodes, and Ag/AgCl in 3M KCl reference electrodes (BASi). Silver epoxy (Electron Microscopy Sciences) was used to make electrical connection between insulated wire ([…]) and working electrode and was insulated using 5 Minute® expoxy (Devcon). Working electrodes were assembled within 5 hours of use. Reactors were sterilized by autoclaving without reference or working electrodes, which were sterilized by submerging in 10% bleach for 5 minutes or 30 seconds, respectively, and rinsed in sterile water. Individual mid-log liquid cultures (OD600 0.45-0.55) were used to inoculate sterile reactors containing 140 ml of MM (described above) with 0.1% (vol/vol) for each biological replicate. Antibiotics were not added at this point. Working electrodes were poised at either open circuit, +100 mV, or −400 mV vs. Ag/AgCl (+310 mV and −190 mV vs the standard hydrogen electrode, respectively). Reactors were aerated using an aquarium pump with a 0.2 μm filter (Thermo Scientific) and heated to 31° C. using a circulating water bath (Haake A 25, Thermo Scientific). Fresh medium was exchanged every 24 hours for 5 days. After 5 days of aerobic growth, working electrode-attached biofilms were rinsed in sterile medium to remove planktonic cells and transferred to sterile reactors with fresh MM previously flushed for 2 hours with N2 ultra-high purity gas (NRL supply store). For antibiotic exposure experiments, antibiotics were added to sterile media before flushing with N2. […]
Biofilm harvesting and processing. […] SYTO-60 was excited with a 561 nm; 0.20% laser and emission was recorded from 580-700 nm. TOTO-1 was excited with a 488 nm; 0.20% laser and emission was recorded from 490 to 580 nm.

[6] = vs NHE at pH7; cited from earlier work
[7] = oxidized form; literature values (footnotes a, c, d); cited from earlier work
[8] = from Wang and Newman (2008), cited from earlier work
[9] = Standard electrode potential E0' vs NHE of exemplary redox-active compounds (Table 4); assay type: physicochemical; details: measured in aqueous solution at pH 7 in this study (footnote b)
Source text: as §1

CN1c2ccccc2Nc2c(O)cccc21 [reduced PYO]
decrease in CFUs of liquid cultures [1]: two- to threefold decrease in CFUs

Cn1c2cccc(=O)c-2nc2ccccc21 [Pyocyanin (PYO), Pyocyanin]
Support survival? (PA14 [2]): Yes | # of Redox cycles over 7 days (PA14 [2]): 31 | Reduction by PA14? (PA14 [3]): Yes | E1/2 (vs. Ag/AgCl (3M KCl))/mV ([4]; pH 5): −128 mV | E1/2 estimated vs. Ag/AgCl (3M KCl) ([4]; pH 6, estimated): −178 mV | E1/2 (vs. Ag/AgCl (3M KCl))/mV ([4]; pH 6): −189 mV | E1/2 vs. Ag/AgCl (3M KCl) ([4]; pH 7, 298 K, 0.1 M KCl, gold disk working electrode): −237 mV | E1/2 vs. NHE ([4]; pH 7, 298 K, corrected to NHE by adding 197 mV): −40 mV | E1/2 (vs. Ag/AgCl (3M KCl))/mV ([4]; pH 7): −237 mV | E1/2 estimated by Nernst equation ([4]; pH 8, estimated from pH 7 value): −296 mV | E1/2 (vs. Ag/AgCl (3M KCl))/mV ([4]; pH 8): −300 mV | E1/2 vs Ag/AgCl in biofilm square wave voltammograms [5]: −250 mV | effect of PYO addition on Δphz* biofilm CFUs (in words) (Δphz* biofilms; listed as PYO): sensitized under PYO-reductive conditions | effect of PYO addition on Δphz* biofilm CFUs (in words) (Δphz* biofilms; listed as pyocyanin): re-sensitized | Redox potentials E (mV) [6]: −34 mV | E0' (vs. NHE) (mV) [7]: −40^a mV | E1/2 (vs. Ag/AgCl (3M KCl))/mV ([8]; pH 5): −128 mV | E1/2 (vs. Ag/AgCl (3M KCl))/mV ([8]; pH 6): −189 mV | E1/2 (vs. Ag/AgCl (3M KCl))/mV ([8]; pH 7): −237 mV | E1/2 (vs. Ag/AgCl (3M KCl))/mV ([8]; pH 8): −300 mV

CN(C)c1ccc2nc3ccc(=[N+](C)C)cc-3sc2c1 [Methylene blue (MB), Methylene blue]
E0' (vs. NHE) (mV) [9]: 0 mV | Support survival? (PA14 [2]): No | # of Redox cycles over 7 days (PA14 [2]): 3 | Reduction by PA14? (PA14 [3]): Yes | E0' (vs. NHE) (mV) [7]: +11 mV
